Data: US20220370001A1, “INTESTINAL DIAGNOSTIC SCREENING DEVICE AND METHOD FOR TARGETED GASTROINTESTINAL THERAPY” (AJM MED-I-CAPS LTD, priority 2019, published 2022)

Key:
[1] = Fluorescence excitation and emission spectra; assay type: physicochemical
Description: FIG. 2A is a graph of Near-Infra-Red fluorescence absorbance and emission spectra of CF750 at varying wavelengths, according to an example embodiment of the present disclosure. CF750 has a NIRF peak excitation (solid line) and a peak emission (dotted line) at 760 nm and 780 nm, respectively. Likewise, FIG. 2B is a graph of near-infra-red fluorescence absorbance and emission spectra of IRDye® CW800, according to an example embodiment of the present disclosure. IRDye® CW800 has a peak NIRF excitation and a peak NIRF emission at 774 nm and 789 nm, respectively. FIG. 2C is a graph of absorbance and emission spectra of anticancer drug doxorubicin at varying wavelengths, according to an example embodiment of the present disclosure. Doxorubicin has a peak excitation and a peak emission at 470 nm and 550 nm, respectively.
DSA (3 mg) is mixed with 800 μL of 1:1 dichloromethane and methanol in a glass vial. IRDye® 800CW NHS ester (0.5 mg) was dissolved in methanol (200 μL) then immediately combined with the lipid solution. The mixture is covered to protect it from light and left on a vortex mixer for 2.5 h. The solvent is then reduced in vacuum, dissolved in minimal amount of chloroform and applied to a silica micro-column (˜3 mL) also in chloroform. The unbound fraction is reapplied several times, before elution and washing with the same solvent. Excess DSA and unreacted dye material is retained on the column and the latter is estimated at <10% of the coloured fraction. The unbound product is dried to a film and stored as a solution in 1 mL chloroform.

[2] = reported value for the free dye; cited from earlier work

With `COc1cccc2c1C(=O)c1c(O)c3c(c(O)c1C2=O)C[C@@](O)(C(=O)CO)C[C@@H]3O[C@H]1C[C@H](N)[C@H](O)[C@H](C)O1` [Doxorubicin, doxorubicin] the “peak emission (Emmax)” value [1] was 550 nm and the “peak excitation (Exmax)” value [1] was 470 nm.

For `CC1(C)C(/C=C/C2=C(Oc3ccc(S(=O)(=O)O)cc3)C(=C/C=C3/N(CCCCS(=O)(=O)O)c4ccc(S(=O)(=O)[O-])cc4C3(C)C)/CCC2)=[N+](CCCCCC(=O)O)c2ccc(S(=O)(=O)O)cc21` [IRDye® CW800], the “Emmax, reported value” [2] is listed as 789 nm, the “Exmax, reported value” [2] is listed as 774 nm and the “peak emission (Emmax)” value [1] is listed as 789 nm. The “peak excitation (Exmax)” value [1] was 774 nm.
